Laboratory results reported in ChEMBL document CHEMBL3638458, “Amine substituted methanesulfonamide derivatives as vanilloid receptor ligands” (2014).

Molecular target: Transient receptor potential cation channel subfamily V member 1 (Homo sapiens, UniProt Q8NER1)
Test: FLIPR Assay: The FLIPR protocol consists of 2 substance additions. First the compounds to be tested (10 μM) are pipetted onto the cells and the Ca2+ influx is compared with the control (capsaicin 10 μM). This provides the result in % activation based on the Ca2+ signal after the addition of 10 μM of capsaicin (CP). After 5 minutes incubation, 100 nM of capsaicin are applied and the Ca2+ influx is also determined. Desensitising agonists and antagonists lead to suppression of the Ca2+ influx. The % inhibition is calculated compared to the maximum achievable inhibition with 10 μM of capsazepine. Starting from the percentage displacement caused by different concentrations of the compounds to be tested of general formula I, IC50 inhibitory concentrations which cause a 50-percent displacement of capsaicin were calculated. K1 values for the test substances were obtained by conversion by means of the Cheng-Prusoff equation (Cheng, Prusoff; Biochem. Pharmacol. 22, 3099-3108, 1973).

Sequence of Transient receptor potential cation channel subfamily V member 1 (Q8NER1 whole entry): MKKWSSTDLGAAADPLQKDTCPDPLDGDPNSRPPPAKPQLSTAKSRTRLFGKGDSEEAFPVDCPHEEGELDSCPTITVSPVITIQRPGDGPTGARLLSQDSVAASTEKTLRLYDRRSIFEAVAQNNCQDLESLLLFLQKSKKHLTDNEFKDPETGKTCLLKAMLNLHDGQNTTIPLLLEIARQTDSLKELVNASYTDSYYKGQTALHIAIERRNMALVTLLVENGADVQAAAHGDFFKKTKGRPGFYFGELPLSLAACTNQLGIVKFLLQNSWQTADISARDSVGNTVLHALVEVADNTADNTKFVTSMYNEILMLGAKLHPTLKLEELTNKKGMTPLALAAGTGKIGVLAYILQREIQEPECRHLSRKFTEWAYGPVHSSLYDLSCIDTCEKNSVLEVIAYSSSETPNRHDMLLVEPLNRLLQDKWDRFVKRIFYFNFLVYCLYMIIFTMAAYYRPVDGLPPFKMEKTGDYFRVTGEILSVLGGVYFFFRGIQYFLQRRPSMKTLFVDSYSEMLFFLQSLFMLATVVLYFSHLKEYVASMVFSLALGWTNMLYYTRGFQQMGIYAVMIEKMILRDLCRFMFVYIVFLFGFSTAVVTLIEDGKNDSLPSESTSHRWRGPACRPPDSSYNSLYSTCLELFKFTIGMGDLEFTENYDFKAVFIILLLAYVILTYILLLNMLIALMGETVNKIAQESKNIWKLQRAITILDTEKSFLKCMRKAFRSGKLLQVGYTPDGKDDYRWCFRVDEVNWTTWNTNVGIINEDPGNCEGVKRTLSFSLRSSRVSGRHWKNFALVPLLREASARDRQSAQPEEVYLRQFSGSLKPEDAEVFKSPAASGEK

SMILES	Ki
CC1CCN(c2nc(C(F)(F)F)ccc2CNC(=O)C(C)c2cccc(CNS(C)(=O)=O)c2)CC1 (centres undefined)	102 nM
CC(C(=O)NCc1ccc(C(F)(F)F)nc1N1CCCC1)c1ccc(CNS(C)(=O)=O)cc1 (centres undefined)	20 nM
Cc1cc(C(C)C(=O)NCc2ccc(C(F)(F)F)nc2N2CCCC2)ccc1CNS(C)(=O)=O (centres undefined)	50 nM
CCS(=O)(=O)NCc1ccc(C(C)C(=O)NCc2ccc(C(F)(F)F)nc2N2CCC(C)CC2)cc1F (centres undefined)	4 nM
